Data from ChEMBL document CHEMBL4402583, “Rational Substitution of ε-Lysine for α-Lysine Enhances the Cell and Membrane Selectivity of Pore-Forming Melittin” (J Med Chem, 2020).
In brackets after ≈: the same amount, converted by molar mass. Activity calls are given as the source filed them. No cut-off for these calls is given here.

Key:
[1] = Cytotoxicity against HDF cells assessed as minimum cytotoxic concentration incubated for 24 hrs by MTS assay; assay type: cell-based; conditions: human, HDF cells (NHDF, human dermal fibroblasts)
Pseudomonas aeruginosa = assay: Antibacterial activity against Pseudomonas aeruginosa assessed as reduction in bacterial growth incubated for 24 hrs by broth microdilution method; assay type: functional
Candida albicans = assay: Antifungal activity against Candida albicans assessed as reduction in fungal growth incubated for 24 hrs by broth microdilution method; assay type: functional
Lipid bilayer [2] = assay: Induction of pore formation in negatively charged DOPE/DOPG large unilamellar vesicles assessed as calcein release at 0.39 to 50 uM measured for 60 mins by fluorescence based assay
Lipid bilayer [3] = assay: Induction of pore formation in zwitterionic DOPC/cholesterol large unilamellar vesicles assessed as calcein release at 0.39 to 50 uM measured for 60 mins by fluorescence based assay
Staphylococcus aureus [4] = assay: Antibacterial activity against methicillin-sensitive Staphylococcus aureus assessed as reduction in bacterial growth incubated for 24 hrs by broth microdilution method; assay type: functional
Staphylococcus aureus [5] = assay: Antibacterial activity against methicillin-resistance Staphylococcus aureus assessed as reduction in bacterial growth incubated for 24 hrs by broth microdilution method; assay type: functional
Enterococcus = assay: Antibacterial activity against vancomycin-resistant Enterococcus assessed as reduction in bacterial growth incubated for 24 hrs by broth microdilution method; assay type: functional
Acinetobacter baumannii [6] = assay: Antibacterial activity against multidrug-resistant Acinetobacter baumannii assessed as reduction in bacterial growth incubated for 24 hrs by broth microdilution method; assay type: functional
Enterobacteriaceae = assay: Antibacterial activity against Carbapenem-Resistant Enterobacteriaceae assessed as reduction in bacterial growth incubated for 24 hrs by broth microdilution method; assay type: functional
Enterococcus faecalis [7] = assay: Antibacterial activity against vancomycin-resistant Enterococcus faecalis ATCC 29212 assessed as log10 reduction in bacterial viability at 2 to 4 times MIC incubated for 30 mins in MHB medium followed by reincubation on MH agar plate for 24 to 48 hrs by time kill kinetics analysis; assay type: functional
Enterococcus faecalis [8] = assay: Antibacterial activity against vancomycin-resistant Enterococcus faecalis 1010 assessed as log10 reduction in bacterial viability at 2 to 4 times MIC incubated for 30 mins in MHB medium followed by reincubation on MH agar plate for 24 to 48 hrs by time kill kinetics analysis; assay type: functional
Enterococcus faecalis [9] = assay: Antibacterial activity against vancomycin-resistant Enterococcus faecalis 1002 assessed as log10 reduction in bacterial viability at 2 to 4 times MIC incubated for 30 mins in MHB medium followed by reincubation on MH agar plate for 24 to 48 hrs by time kill kinetics analysis; assay type: functional
Acinetobacter baumannii [10] = assay: Antibacterial activity against Acinetobacter baumannii 1001 assessed as reduction in bacterial viability at 2 or 4 times MIC incubated up to 24 hrs in MHB medium followed by reincubation on MH agar plate for 24 to 48 hrs by time kill kinetics assay; assay type: functional, organism-based
Escherichia coli [11] = assay: Antibacterial activity against Escherichia coli 1004 assessed as reduction in bacterial viability at 2 or 4 times MIC incubated up to 24 hrs in MHB medium followed by reincubation on MH agar plate for 24 to 48 hrs by time kill kinetics assay; assay type: functional, organism-based
Klebsiella pneumoniae = assay: Antibacterial activity against Klebsiella pneumoniae 1008 assessed as reduction in bacterial viability at 2 or 4 times MIC incubated up to 24 hrs in MHB medium followed by reincubation on MH agar plate for 24 to 48 hrs by time kill kinetics assay; assay type: functional, organism-based
Enterococcus faecalis [12] = assay: Induction of pore formation in intact vancomycin-resistant Enterococcus faecalis ATCC 29212 cell membrane assessed as SG uptake at 2 times MIC by SG dye based fluorescence based assay; assay type: organism-based
Enterococcus faecalis [13] = assay: Induction of pore formation in intact vancomycin-resistant Enterococcus faecalis 1002 cell membrane assessed as SG uptake at 2 times MIC by SG dye based fluorescence based assay; assay type: organism-based
Acinetobacter baumannii [14] = assay: Induction of pore formation in intact Acinetobacter baumannii 1001 cell membrane assessed as SG uptake at 2 times MIC by SG dye based fluorescence based assay; assay type: organism-based
Escherichia coli [15] = assay: Induction of pore formation in intact Escherichia coli 1004 cell membrane assessed as SG uptake at 2 times MIC by SG dye based fluorescence based assay; assay type: organism-based
[16] = Stability of the compound in rabbit tear fluid measured after 2 hrs by UPLC-MS analysis; assay type: ADME, Oryctolagus cuniculus
[17] = Stability of the compound in rabbit tear fluids assessed as parent compound remaining measured after 4 hrs by UPLC-MS analysis; assay type: ADME, Oryctolagus cuniculus; conditions: tear fluid, read-out: Stability
NHDF [18] = assay: Cytotoxicity against HDF cells assessed as reduction in metabolic activity at 16 ug/ml incubated for 24 hrs by MTS assay; assay type: ADME, cell-based; conditions: human
Lipid bilayer [19] = assay: Induction of pore formation in negatively charged DOPE/DOPG large unilamellar vesicles assessed as ratio of peptide to lipid molar ratio that induces 50% calcein leakage measured for 60 mins by calcein dequenching based fluorescence based assay
Lipid bilayer [20] = assay: Binding affinity to zwitterionic DOPC/cholesterol large unilamellar vesicles assessed as transformation of peptide secondary structure to alpha-helical conformation by CD spectropolarimetry
[21] = Cytotoxicity against HDF cells assessed as minimum cytotoxic concentration incubated for 24 hrs by Alexa Fluor […] phalloidin-FITC/Hoescht dye staining based fluorescence microscopic analysis; assay type: cell-based; conditions: human, HDF cells (NHDF, human dermal fibroblasts)
Staphylococcus aureus [22] = assay: Antibacterial activity against Staphylococcus aureus assessed as reduction in bacterial growth incubated for 24 hrs by broth microdilution method; assay type: functional
NHDF [23] = assay: Cytotoxicity against HDF cells assessed as reduction in metabolic activity at 32 ug/ml incubated for 24 hrs by MTS assay; assay type: ADME, cell-based; conditions: human
NHDF [24] = assay: Cytotoxicity against HDF cells at 31.25 ug/ml incubated for 24 hrs by Alexa Fluor […] phalloidin-FITC/Hoescht dye staining based fluorescence microscopic analysis; assay type: cell-based; conditions: human
[25] = Cytotoxicity against HDF cells assessed as cell viability at 500 ug/ml incubated for 24 hrs by MTS assay relative to control; assay type: cell-based; conditions: human, HDF cells (NHDF, human dermal fibroblasts); read-out: Activity
NHDF [26] = assay: Cytotoxicity against HDF cells assessed as truncation and reduction in cytoskeleton at 500 ug/ml incubated for 24 hrs by Alexa Fluor […] phalloidin-FITC/Hoescht dye staining based fluorescence microscopic analysis; assay type: cell-based; conditions: human

Row | Compound | MCC at 24 h [1] | MIC50 (Pseudomonas aeruginosa) | MIC (Candida albicans) | MIC50 (Candida albicans) | Activity (Lipid bilayer [2]) | Activity (Lipid bilayer [3]) | MIC50 (Staphylococcus aureus [4]) | MIC50 (Staphylococcus aureus [5]) | MIC (Enterococcus) | MIC50 (Enterococcus) | MIC (Acinetobacter baumannii [6]) | MIC50 (Acinetobacter baumannii [6]) | MIC (Enterobacteriaceae) | MIC50 (Enterobacteriaceae) | Ratio (Lipid bilayer [19]) | Activity (Lipid bilayer [20]) | MCC at 24 h [21] | MIC (Pseudomonas aeruginosa) | further results
1 | CC[C@H](C)[C@H](NC(=O)CN)C(=O)NCC(=O)N[C@@H](C)C(=O)N[C@H](C(=O)N[C@@H](CC(C)C)C(=O)N[C@@H](CCCCN)C(=O)N[C@H](C(=O)N[C@@H](CC(C)C)C(=O)N[C@H](C(=O)N[C@H](C(=O)NCC(=O)N[C@@H](CC(C)C)C(=O)N1CCC[C@H]1C(=O)N[C@@H](C)C(=O)N[C@@H](CC(C)C)C(=O)N[C@H](C(=O)N[C@@H](CO)C(=O)N[C@@H](Cc1c[nH]c2ccccc12)C(=O)N[C@H](C(=O)N[C@@H](CCCCN)C(=O)N[C@@H](CCCNC(=N)N)C(=O)N[C@@H](CCCCN)C(=O)N[C@@H](CCCNC(=N)N)C(=O)N[C@@H](CCC(N)=O)C(=O)N[C@@H](CCC(N)=O)C(N)=O)[C@@H](C)CC)[C@@H](C)CC)[C@@H](C)O)[C@@H](C)O)C(C)C)C(C)C [MELITTIN] | > 8 µg/mL | 16 µg/mL (≈ 5.62 µM) | 4 to 8 µg/mL (≈ 1.41 to 2.81 µM) | 4 µg/mL (≈ 1.41 µM) | Active | Active | 4 µg/mL (≈ 1.41 µM) | 4 µg/mL (≈ 1.41 µM) | 0.5 to 8 µg/mL (≈ 0.176 to 2.81 µM) | 4 µg/mL (≈ 1.41 µM) | 2 to 4 µg/mL (≈ 0.703 to 1.41 µM) | 4 µg/mL (≈ 1.41 µM) | 8 to 32 µg/mL (≈ 2.81 to 11.2 µM) | 8 µg/mL (≈ 2.81 µM) | 0.04 | Active | > 8 µg/mL |  | log(activity) (Enterococcus faecalis [7]): >5; log(activity) (Enterococcus faecalis [8]): >5; log(activity) (Enterococcus faecalis [9]): >5; Activity (Acinetobacter baumannii [10]): Active; Activity (Escherichia coli [11]): Active; Activity (Klebsiella pneumoniae): Active; Activity (Enterococcus faecalis [12]): Active; Activity (Enterococcus faecalis [13]): Active; Activity (Acinetobacter baumannii [14]): Active; Activity (Escherichia coli [15]): Active; Stability [16]: Stable; remaining at 4 h [17]: 85.3%; Activity (NHDF [18]): Toxic
2 | CC[C@H](C)[C@H](NC(=O)CN)C(=O)NCC(=O)N[C@@H](C)C(=O)N[C@H](C(=O)N[C@@H](CC(C)C)C(=O)N[C@@H](CCCCN)C(=O)N[C@H](C(=O)N[C@@H](CC(C)C)C(=O)N[C@H](C(=O)N[C@H](C(=O)NCC(=O)N[C@@H](CC(C)C)C(=O)N1CCC[C@H]1C(=O)N[C@@H](C)C(=O)N[C@@H](CC(C)C)C(=O)N[C@H](C(=O)N[C@@H](CO)C(=O)N[C@@H](Cc1c[nH]c2ccccc12)C(=O)N[C@H](C(=O)N[C@@H](CCCCN)C(=O)N[C@@H](CCCNC(=N)N)C(=O)NCCC[C@@H](CN)C(=O)N[C@@H](CCCNC(=N)N)C(=O)N[C@@H](CCC(N)=O)C(=O)N[C@@H](CCC(N)=O)C(N)=O)[C@@H](C)CC)[C@@H](C)CC)[C@@H](C)O)[C@@H](C)O)C(C)C)C(C)C | > 16 µg/mL |  | 4 to 8 µg/mL (≈ 1.41 to 2.81 µM) |  | Active | Active |  |  |  |  |  |  |  |  | 0.15 | inactive | > 16 µg/mL | 4 to 16 µg/mL (≈ 1.41 to 5.62 µM) | MIC (Staphylococcus aureus [22]): 4 to 8 µg/mL (≈ 1.41 to 2.81 µM); Activity (NHDF [23]): Toxic; Activity (NHDF [24]): Toxic
3 | CC[C@H](C)[C@H](NC(=O)CN)C(=O)NCC(=O)N[C@@H](C)C(=O)N[C@H](C(=O)N[C@@H](CC(C)C)C(=O)NCCC[C@@H](CN)C(=O)N[C@H](C(=O)N[C@@H](CC(C)C)C(=O)N[C@H](C(=O)N[C@H](C(=O)NCC(=O)N[C@@H](CC(C)C)C(=O)N1CCC[C@H]1C(=O)N[C@@H](C)C(=O)N[C@@H](CC(C)C)C(=O)N[C@H](C(=O)N[C@@H](CO)C(=O)N[C@@H](Cc1c[nH]c2ccccc12)C(=O)N[C@H](C(=O)NCCC[C@@H](CN)C(=O)N[C@@H](CCCNC(=N)N)C(=O)NCCC[C@@H](CN)C(=O)N[C@@H](CCCNC(=N)N)C(=O)N[C@@H](CCC(N)=O)C(=O)N[C@@H](CCC(N)=O)C(N)=O)[C@@H](C)CC)[C@@H](C)CC)[C@@H](C)O)[C@@H](C)O)C(C)C)C(C)C |  | 32 µg/mL (≈ 11.2 µM) | 4 to 8 µg/mL (≈ 1.41 to 2.81 µM) | 4 µg/mL (≈ 1.41 µM) |  |  | 64 µg/mL (≈ 22.5 µM) | 64 µg/mL (≈ 22.5 µM) | 4 to 16 µg/mL (≈ 1.41 to 5.62 µM) | 8 µg/mL (≈ 2.81 µM) | 4 to 8 µg/mL (≈ 1.41 to 2.81 µM) | 8 µg/mL (≈ 2.81 µM) | 4 to 64 µg/mL (≈ 1.41 to 22.5 µM) | 8 µg/mL (≈ 2.81 µM) |  |  |  | 16 to 64 µg/mL (≈ 5.62 to 22.5 µM) | MIC (Staphylococcus aureus [4]): 16 to 128 µg/mL (≈ 5.62 to 45 µM); viability at 24 h, 500 ug/ml [25]: 102%; Activity (NHDF [26]): Toxic
